Test results taken from patent publication US5426113A, “Method of preventing ulcer formation caused by nonsteroidal antiinflammatory drugs employing tetrazol-benzothiophene carboxamide compounds” (Warner-Lambert Company, priority 1994, dated 1995).
“Also recorded” adds a separate entry of the source. Like-named read-outs stand apart in the source and are kept apart here.

Key:
[1] = test system: human basophil histamine release; experiment: Human basophil histamine release stimulated with anti-IgE; format: cell-based
MAC-1 [2] = target: T1, MAC-1 (Homo sapiens, UniProt P05107+P11215); conditions: Wright C. D., et al., Keystone symposium 1994; cited from earlier work
T1 construct: endogenous in cells
T1 sequence (P05107 23-769, other chains not shown): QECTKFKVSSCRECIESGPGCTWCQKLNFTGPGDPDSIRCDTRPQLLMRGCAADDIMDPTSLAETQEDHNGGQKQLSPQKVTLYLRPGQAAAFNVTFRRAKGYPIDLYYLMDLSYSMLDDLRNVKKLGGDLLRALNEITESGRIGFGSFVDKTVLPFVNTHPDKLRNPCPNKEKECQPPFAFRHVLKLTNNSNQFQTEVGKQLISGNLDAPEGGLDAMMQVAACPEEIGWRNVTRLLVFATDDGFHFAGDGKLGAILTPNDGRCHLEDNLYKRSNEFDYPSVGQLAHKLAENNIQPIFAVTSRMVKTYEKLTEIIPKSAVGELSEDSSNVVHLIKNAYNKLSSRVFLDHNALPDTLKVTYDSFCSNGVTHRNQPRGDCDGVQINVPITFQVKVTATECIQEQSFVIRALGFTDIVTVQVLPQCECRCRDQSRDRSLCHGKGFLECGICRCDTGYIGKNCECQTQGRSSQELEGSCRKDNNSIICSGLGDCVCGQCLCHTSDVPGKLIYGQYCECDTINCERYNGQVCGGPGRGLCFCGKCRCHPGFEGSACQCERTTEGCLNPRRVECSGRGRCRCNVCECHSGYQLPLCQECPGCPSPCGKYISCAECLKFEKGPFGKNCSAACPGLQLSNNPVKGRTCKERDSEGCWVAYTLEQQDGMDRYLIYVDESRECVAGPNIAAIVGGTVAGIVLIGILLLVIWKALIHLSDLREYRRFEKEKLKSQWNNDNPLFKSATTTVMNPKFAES

[3] = test system: stimulated acid secretion; experiment: Dimaprit-stimulated gastric fistula beagle dog model; format: in vivo
From the text: All parameters of gastric secretion appeared to be practically identical to those observed in the vehicle-only controls.

[4] = test system: NSAID-induced gastric damage; conditions: indomethacin and aspirin in rats; Low J. E., et al., 1993; cited from earlier work
basal acid secretion = experiment: Shay rat model of basal acid secretion; format: in vivo; conditions: 50 or 200 mg/kg PO; pylorus ligated 1 hour later, acid content 4 hours later
Description: This has been tested in two different animal models. In the rat, Example 1 was tested in the Shay rat model of basal acid secretion. […] One hour later the animals were anesthetized and the pyloric sphincter to the stomach was ligated. The stomachs were removed 4 hours later and their acid content determined.

[5] = test system: indomethacin-induced gastric damage; experiment: Indomethacin-induced gastric damage model; format: in vivo; conditions: Rattus norvegicus; oral, 15 minutes before 20 mg/kg indomethacin PO; assessed at 4 hours; read-out: ED50 cytoprotection, indomethacin
Description: (§1) Fifteen minutes later, the animals were orally challenged with a single dose of 20 mg/kg indomethacin or 288 mg/kg aspirin. The animals were euthanized either at 4 hours (indomethacin) or 30 minutes (aspirin) later and the amount of gastric damage was assessed using image analysis.

[6] = test system: human colonic adenocarcinoma (CaCO-2) cells
Description: [^14 C]Example 1 (22.9 μg/mL) was loaded on to either the apical (luminal) or basolateral (vascular) of the monolayer. Samples were obtained over 250 minutes from either side of the chamber in each experiment.

[7] = test system: gastrointestinal tissues (stomach, small and large intestines); experiment: Whole body autoradiography after intravenous radiolabeled Example 1; format: in vivo
[8] = test system: leukocyte adhesion in the animal's mesenteric post-capillary venules; experiment: NSAID (indomethacin)-induced leukocyte adhesion in rat mesenteric post-capillary venules, intravital microscopy; format: in vivo; conditions: indomethacin 10 minutes later
From the text: In these studies, oral treatment of rats with the NSAID indomethacin results in leukocyte adhesion in the animal's mesenteric post-capillary venules. This can be observed and measured using the technique of Intravital microscopy.

[9] = test system: animal disease models (asthma, allergy, arthritis, adult respiratory distress syndrome (ARDS), and cardiac reperfusion); experiment: Animal disease models (asthma, allergy, arthritis, ARDS, cardiac reperfusion); format: in vivo
[10] = test system: NSAID-induced gastric damage; experiment: Gastric cytoprotection in animal models (NSAID-induced gastric damage); format: in vivo; conditions: Rattus norvegicus, po; range over models
Description: as §1

[11] = test system: aspirin-induced gastric damage; experiment: Aspirin-induced gastric damage model (aspirin erosion model); format: in vivo; conditions: Rattus norvegicus, 0.5 h
Description: as §1
Additional compounds of Formula I were tested in both the MAC-1 and the aspirin-induced gastric damage model (Table 1 and FIG. 4). Compounds which were active in the MAC-1 assay were also active in the gastric cytoprotective assay.

Plasma protein binding = format: in vitro ADME; conditions: rat, dog, sheep, and human
MAC-1 [12] = target: T1, MAC-1; experiment: Inhibition of MAC-1 mediated adhesion of FMLP-stimulated neutrophils to KLH-coated plastic; format: cell-based; conditions: 1 h, read-out: increase of MAC-1 dependent adherence to KLH-coated plastic
[13] = po, Table 1, aspirin-induced gastric damage model, read-out: Gastric Cytoprotective Effect (ED50, mg/kg PO)

## COc1ccc2sc(C(=O)Nc3nnn[nH]3)c(OC(C)C)c2c1 [Example 1, 5-Methoxy-3-(1-methylethoxy)-N-1H-tetrazol-5-yl-benzo[b]thiophene-2-carboxamide]
[1]; Homo sapiens, anti-IgE stimulated, absence of serum
  IC50: 0.3 µM
[1]; increasing concentration of serum (5-50%)
  inhibitory effect on human basophil histamine release in the presence of serum: significantly reduced
MAC-1 [2]
  inhibition of neutrophil adhesion mediated by MAC-1: can inhibit neutrophil adhesion; also recorded: inhibits neutrophil adhesion
[3]; 0.1, 1.0, or 10 mg/kg PO, dimaprit-stimulated
  changes in gastric secretion: no significant changes
[4]
  gastric cytoprotective effects against damage caused by NSAIDs: gastric cytoprotective effects
Basal acid secretion
  effect on basal acid secretion: no effect
[5]
  ED50: 1 mg/kg
[6]
  amount on apical side compared to basolateral side: significantly more
[7]; rapid
  time to radiolabeled material associated with gastrointestinal tissues: 5 min
[7]; stomach, small and large intestines
  levels of radiolabeled material associated with gastrointestinal tissues: high levels
[8]; 1 mg/kg PO, 40 and 70 minute time point
  inhibition of indomethacin-induced leukocyte adhesion: no protective effects
[8]; 5 or 10 mg/kg PO
  inhibition of indomethacin-induced leukocyte adhesion: complete inhibition
[9]; IV
  ED50: 5 to 20 mg/kg
[9]; oral
  ED50: 30 to 100 mg/kg
[10]
  ED50: 0.01 to 1 mg/kg
[11]; oral, 15 minutes before 288 mg/kg aspirin PO, assessed at 30 minutes, read-out: ED50 cytoprotection, aspirin
  ED50: 0.01 mg/kg
Plasma protein binding
  fraction unbound: 0.01 to 0.02

## COc1ccc2c(OC(C)C)c(C(=O)Nc3nnn[nH]3)sc2c1 [Example 2, 6-Methoxy-3-(1-methylethoxy)-N-1H-tetrazol-5-yl-benzo[b]thiophene-2-carboxamide]
[11]; [13]
  ED50: 1 mg/kg

## COc1cc2sc(C(=O)Nc3nnn[nH]3)c(OC(C)C)c2cc1OC [Example 3, 5,6-Dimethoxy-3-(1-methylethoxy)-N-1H-tetrazol5-yl-benzo[b]thiophene-2-carboxamide]
[11]; [13]
  ED50: 1 mg/kg

## COc1cc2sc(C(=O)Nc3nnn[nH]3)c(Oc3ccccc3)c2cc1OC [Example 4, 5,6-Dimethoxy-3-phenoxy-N-1H-tetrazol-5-yl-benzo[b]thiophene-2-carboxamide]
[11]; [13]
  ED50: 0.01 mg/kg

## CSCC[C@H](NC=O)C(=O)N[C@@H](CC(C)C)C(=O)N[C@@H](Cc1ccccc1)C(=O)O [N-formyl-methionyl-leucyl-phenylalanine]
MAC-1 [12]
  activation at 0.01 µM: 49%

## CN(C)CCCSC(=N)N [dimaprit]
[3]; constant intravenous 0.2 mg/kg hr
  gastric secretion pH: 1.0

## CNC(=C[N+](=O)[O-])NCCSCc1ccc(CN(C)C)o1 [ranitidine]
[3]; 1.5 mg/kg PO, dimaprit 0.2 mg/kg hr IV
  increase in gastric pH: 4 units
